Here are results for one compound from patent publication US20240294570A1, “ENZYMATICALLY FORMING INTRANUCLEAR PEPTIDE ASSEMBLIES FOR SELECTIVELY KILLING INDUCED PLURIPOTENT STEM CELLS” (BRANDEIS UNIVERSITY, priority 2021, published 2024).

One may read the viability as a per cent measure of how many cells are alive, often set against a control.

SMILES strings stand for the structures. Non-standard residues stand in square brackets, D forms with d. Residues, ends and D or L forms follow the SMILES beside them. *: point of attachment. pY = N[C@@H](Cc1ccc(OP(=O)(O)O)cc1)C(=O)O; NBD = O=[N+]([O-])c1ccc(*)c2nonc12; βAla = NCCC(=O)O

Data set [1] in a line: Enzymatic self-assembly in vitro, nanostructures by TEM. The class given is physicochemical. As for the experimental part:
TEM Sample Preparation: After placing 5 μL samples on 400 mesh copper grids coated with continuous thick carbon film (˜35 nm) which is glowed discharged, we washed the grid with ddH2O and UA (uranyl acetate). The sample loaded grid was stained with the UA. The residual UA was removed by filter paper and then dried in air. TEM images were obtained with Morgagni 268 transmission electron microscope.
After obtaining all the precursors, their behaviors for EISA were evaluated in vitro using transmission electron microscopes (TEM) to examine the nanostructures formed before and after the ALP catalyzed dephosphorylation of precursors 5, 7, and 9. […] The critical micelle concentration (CMC) of 5 is 86.1 μM. […] The CMC of 6 is 8.1 μM. Unlike the case of 5, dephosphorylation of 7 or 9 at 400 μM by ALP (0.5 U/mL) produces nanofibers with the diameters of 6±2 nm or 9±2 nm, whose CMC is 87.4 μM or 25.8 μM, respectively.
A key requirement for selectively eliminating iPSCs by EISA is that the L-peptide nanoribbons only form on and in iPSCs, which overexpress ALP, but not on and in the differentiated cells that express normal level of ALP. That is, L-peptide nanoribbons should only rapidly form at high level of ALP, but not at normal level of ALP. […] Thus, after assessing the level of ALP expression in iPSCs, it should be possible to optimizing the initial concentration of a peptide and the time of dephosphorylation, to promote EISA that selectively targets iPSCs.

Data set [2] is described as follows: Degradation in HS-5 cell lysate (LC-MS). The settings on record: 200 μM, 2 h of incubation.
Data set [3] in a line: Cell viability of iPSCs (trypan blue). The class given is cell-based, human. The settings on record: human, human induced pluripotent stem cells (iPSC line A21), 2 hours. As for the experimental part:
(§1) Cell Culture: Human induced pluripotent stem cell line A21 was generated from human normal dermal fibroblasts by using the StemRNA™-NM Reprogramming kit (Stemgent, Cat #00-0076). hiPSCs were routinely cultured and passaged on 6-well plates coated with 0.25 μg/cm^2 iMatrix-511 (Recombinant Laminin-511) (ReproCell) with NutriStem XF/FFTM medium (Biological Industries). HS-5 cell line and HEK293 cell line were purchased from American Type Culture Collection (ATCC, USA). HS-5 cells were cultured in Dulbecco's Modified Eagle Medium (DMEM) supplemented with 10% fetal bovine serum (FBS), 100 U/mL penicillin and 100 μg/mL streptomycin. HEK293 cells were cultured in Minimal Essential Medium (MEM) supplemented with 10% fetal bovine serum (FBS), 100 U/mL penicillin and 100 μg/mL streptomycin. All cells were maintained at 37° C. in a humidified atmosphere of 5% CO2.
(§2) Cell Viability of iPSC's: iPSCs were plated in 6-well plates and incubated for 24 to 48 hours, then media were replaced with fresh one (2 ml) supplemented with PBS (control) 5 (200 μM, 300 μM, and 400 μM), 7 (400 μM) or 9 (400 μM), and incubated for 2 hours. Media were removed and cells were rinsed with PBS once, fresh normal cultural media were added and incubated for 30 min. All cells were collected and stained with trypan blue, live cells were counted using Cellometer Auto 2000 (Nexcelom Bioscience). Data were obtained by from three independent wells (n=3).

The test system of the next data set is iPSCs. Briefly: Cell viability of iPSCs (trypan blue). It counts as cell-based, human. As to conditions: 400 μM, 2 h. As for the experimental part: as §1, §2
For another data set, the system named is HEK293 cells. Description: Cytotoxicity against HEK293 cells (MTT assay). The class given is cell-based. As to conditions: 400 μM, 2 h. Here is the method: as §1
Cell Viability of Differentiated Cells: Cytotoxicity against HS-5 cells and HEK293 cells was determined by using MTT assay. […] The absorbance of each well at 595 nm was measured by a DTX880 Multimode Detector. The results were calculated as cell viability percentage relative to untreated cells. […]
On the technique in general: Formazan colour is commonly taken as a measure of viable cells.

Data set [4] can be described thus: Cell viability of iPS-derived HPCs (trypan blue). It counts as cell-based, human. The settings on record: human, iPS-derived hematopoietic progenitor cells (HPCs), read-out: viability of the HPC cells. As for the experimental part: (§3) Differentiation of Human iPSC to iPS-derived Hematopoietic Progenitor Cells (HPC's): iPSCs were differentiated into hematopoietic progenitor cells (HPCs) by using a 3D-bioreactor platform^1. HPCs released from iPSC-spheroids after 9-10 days' differentiation were collected and characterized. Hematopoietic lineage specific marker expression of harvested HPCs were analyzed by flow cytometry. About 97.6% of these HPCs were CD31+CD43+ double positive, but only about 13% are OCT4+, indicative of commitment to hematopoietic lineage. These iPS-derived HPCs were used for 5 (400 μM, 2 hr) cytotoxicity assay.
(§4) Cell Viability of iPS-derived HPC's: iPS-derived HPCs were plated in 12-well plates and incubated overnight, then media were replaced with fresh one (2 ml) supplemented with PBS (control) 5 (400 μM) incubated for 2 hours. All cells were collected and stained with trypan blue, live cells were counted using Cellometer Auto 2000 (Nexcelom Bioscience). Data were obtained by from three independent wells (n=3).

The next data set deals with iPS-derived HPCs. Briefly: Cell viability of iPS-derived HPCs (trypan blue). It counts as cell-based, human. The settings on record: 400 μM, 2 h. Here is the method:
as §3, §4

In turn, `CC(C)C[C@H](NC(=O)CCNc1ccc([N+](=O)[O-])c2nonc12)C(=O)N[C@@H](CC(C)C)C(=O)N[C@@H](CC(C)C)C(=O)N[C@@H](CC(C)C)C(=O)N[C@@H](Cc1ccc(OP(=O)(O)O)cc1)C(=O)O` [compound 5, NBD-βA-LLLLpY] ({NBD-βAla}-LLLL[pY]-OH) yielded a diameters of nanoparticles in data set [1] (200 μM, one-hour treatment by 0.1 U/mL ALP) of 404±50 nm. In data set [1] (400 μM, ALP 0.5 U/mL, 37° C., 24 h), this compound displayed a widths of nanoribbons of 74±13 nm. In data set [1] (400 μM, PBS, before ALP), the “diameter of short nanofibers” value amounted to 9±2 nm. Besides, the “stability of 5 in HS-5 lysate” value in data set [2] is “All of 5 disappears”. In data set [3] (200 μM), the viability at 2 h, 200 µM was determined as 31.1 ± 3.2%. In data set [3] (300 μM), this compound came in with a viability at 2 h, 300 µM of 18.5 ± 1.5%. Further, the viability at 2 h, 400 µM worked out at 6.96 ± 1.71% in data set [3] (400 μM) and 96.8% in data set [4]. The “cell death of iPSCs (FIG. 8A)” value with iPSCs is 93%. The “cytotoxicity towards HEK293 cells” value in the data set on HEK293 cells is listed as “innocuous”. Moreover, in the data set on iPS-derived HPCs, the “cell survival of HPCs (FIG. 8B)” value turned out to be 97%.
